Results taken from ChEMBL document CHEMBL1130613, “Design and synthesis of dipeptidyl alpha',beta'-epoxy ketones, potent irreversible inhibitors of the cysteine protease cruzain” (Bioorg Med Chem Lett, 1998).

target: Cruzipain (Trypanosoma cruzi) (UniProt P25779); assay: Second order rate constant for inhibition of cruzain
Sequence (P25779 123-467 limits assumed): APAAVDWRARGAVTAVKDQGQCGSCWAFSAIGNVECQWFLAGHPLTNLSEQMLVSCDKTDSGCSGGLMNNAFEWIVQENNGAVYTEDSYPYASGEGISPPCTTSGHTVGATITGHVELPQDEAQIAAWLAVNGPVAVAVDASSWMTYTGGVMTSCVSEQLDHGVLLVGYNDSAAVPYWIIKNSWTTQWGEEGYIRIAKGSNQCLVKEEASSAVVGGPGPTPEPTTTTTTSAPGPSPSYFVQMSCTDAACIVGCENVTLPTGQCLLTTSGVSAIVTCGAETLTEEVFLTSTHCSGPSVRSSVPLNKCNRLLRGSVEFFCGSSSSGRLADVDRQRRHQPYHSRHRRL

K inact/Ki | Compound
128000 M⁻¹ s⁻¹ | C[C@H](NC(=O)[C@H](Cc1ccccc1)NC(=O)OCc1ccccc1)C(=O)[C@@H]1CO1
330000 M⁻¹ s⁻¹ | O=C(N[C@@H](Cc1ccccc1)C(=O)N[C@@H](CCc1ccccc1)C(=O)[C@@H]1CO1)OCc1ccccc1
70600 M⁻¹ s⁻¹ | CC(C)CCNC(=O)[C@H](CC(C)C)NC(=O)[C@H]1OC1C(=O)O (single isomer, unassigned)
